Key:
[1] = tested on: Sendai virus induced human leukocytes; assay: α-interferon production in Sendai virus induced human leukocytes, ELISA of supernatant; format: cell-based; conditions: for effect on production of α-interferon (in words): virus induced primary leukocytes
Method: The human leukocytes used according to the invention are prepared from buffy coats by an initial centrifugation to fractionate the components, followed by sequential removal of the plasma layer and of the leukocyte fraction by suction. Residual red blood cells contaminating the leukocyte fraction are lysed twice with 2-4 volumes of cold 0.83% ammonium chloride and each lysis step is followed by centrifugation to collect the cells. The final leukocyte fraction is resuspended in a basal medium, e.g. EMEM (Eagle's minimum essential medium) supplemented with polyethylene glycol-(PEG)-precipitated human plasma. PEG-precipitated plasma is prepared by adding PEG 6000 to a final concentration of 6% (w/w) to human plasma. After precipitation for 3-5 days in a cold room the supernatant is removed and stored frozen until used. The temperature of the incubation medium is set to 36-37° C. and continuous stirring is used. Human PEG-precipitated plasma is added to a concentration of 1-5% (v/v), preferably 4% (v/v). A low amount of α-interferon (normally 100 IU/ml) is added to the incubation medium as a priming step, but other concentrations, up to several thousands of units per ml can be used. Human leukocytes are then added to a concentration of about 3-15 million cells per mL, preferably 7-11 million cells per mL. The similar size of the enhancing effect observed using the different cell concentrations makes it probable that the effect can be seen also at cell concentrations outside this range. The priming step is normally allowed to proceed for 1-5 hours, preferably 1.5-2 hours. […] A decrease of the incubation temperature to 29° C. -32° C. is performed (Morser, J. And Shuttleworth, J. (1981) J. Gen. Virology 56, 163-174) after another 1 to 4 hours, preferable after 1 to 2 hours. The concentration range where the additives are effective in increasing the interferon production varies between the different compounds but for the least toxic solvents a positive effect can be seen in the range of 1 mM-0.3 M, preferably in the range of 3 mM-50 mM and most preferably within 5 mM-20 mM. For the more toxic solvents the suitable concentration lies within the more limited ranges. […] After these additions, the incubation is allowed to proceed overnight with continuous stirring. A centrifugation step is performed to remove the cells and the supernatants are analysed by an ELISA to quantify α-interferon. Human leukocytes prepared from buffy coats and used in concentrations between 8 and 11 million cells per mL are incubated in a basal media (either EMEM or a modified EMEM) supplemented with 1.5 g/L of tricine and 4% (v/v) PEG precipitated plasma. […] The cells are removed by a centrifugation step and the supernatants are analysed by an ELISA to quantify α-interferon. […]

[2] = tested on: non induced human leukocytes; assay: α-interferon production in non induced human leukocytes, ELISA of supernatant; format: cell-based; conditions: absence of a viral inducer
Method: Human leukocytes prepared from buffy coats and used in concentrations between 8 and 11 million cells per mL are incubated in a basal media (either EMEM or a modified EMEM) supplemented with 1.5 g/L of tricine and 4% (v/v) PEG precipitated plasma. The experiments are performed in a volume of 40 mL medium in 100 mL glass bottles under continuous stirring. The cells are primed with 100 IU/mL α-interferon for 1.5 hours at 37° C. before addition of 30 mL/L Sendai virus. After 1.5 hours the incubation temperature is decreased to 30° C. and the organic solvents are added to the incubation medium. The solvent used are acetone, DMSO (final concentration: 5 mL/L), 2-butanone, NN-dimethylacetamide, NMP, tetramethylene sulfoxide (2.5 mL/L), TMU (1.5 mL/L), 2-pyrrolidinone (1.25 mL/L), 4-metyl-2-pentanone, 1,3-dimetyl-2-imidazolidinone and N-ethyl-2-pyrrolidinone (0.6 mL/L). The incubation is then allowed to proceed overnight. The cells are removed by a centrifugation step and the supernatants are analysed by an ELISA to quantify α-interferon.
Example 1 is repeated with the same incubation conditions but with addition of 2-ABMP in combination with DMSO. The enhancing agents are added both to Sendai virus induced leukocytes and to non induced leukocytes and the effect on the α-interferon production is compared. The 2-ABMP is added at a concentration of 50 μg/ml and the amount of DMSO added is 5 mL/L.

Cc1nc(N)nc(O)c1Br [2-ABMP, 2-amino-5-bromo-6-methyl-4-pyrimidinol]
effect on production of α-interferon (in words) [1]: act as an enhancing agent
induction of α-interferon (in words) [2]: did not induce α-interferon

C[S+](C)[O-] [dimethylsulfoxide]
effect on production of α-interferon (in words) [1]: enhanced

CCCC(=O)[O-].[Na+] [sodium butyrate]
effect on yield of α-interferon (in words) ([1]; pre-treatment of primary leukocytes): decrease

Cn1c(=O)c2[nH]cnc2n(C)c1=O [theophylline]
effect on production of α-interferon (in words) [1]: enhanced

— patent publication US6962695B1, “Modification of interferon alpha production” (Bionative AB, priority 1998, dated 2005)
